These results are taken from PubChem BioAssay AID434955 (Southern Research Specialized Biocontainment Screening …, 2010).

The subject of the assay is M. tuberculosis H37Rv growth with meropenem, percent inhibition. The experiment in a line: beta-lactam sensitization of Mtb H37Rv, H37Rv (AID 434955).
The term IC90 denotes the point of the concentration-response curve where the effect stands at 90%. As to `COc1ccc(OC)c(-c2cc(C(=O)Nc3c(C)n(C)n(-c4ccccc4)c3=O)no2)c1`, the IC90 was 49.5 µM. As for `O=C(NN1C(=O)C2C(C1=O)C1C=CC2C12CC2)c1ccncc1` (stereo not given), the figure is 13.9 µM; as for `CC(C)C1CC(CCNCc2ccc(N(C)C)cc2)(c2ccccc2)CCO1` (stereo not given), 26.9 µM; as for `Cc1ccc(CN2C(=O)N/C(=C\c3ccc(-c4ccc(C(=O)O)cc4C)o3)C2=O)cc1`, 14.7 µM. As for `CC(C)(C)c1nn(-c2ccccc2)c2[nH]c(=O)c(CNc3ccc4c(c3)OCCO4)cc12`, the figure is 99.7 µM; as for `C/C(=N/NC(=O)c1cccs1)c1c(C)[nH]n(-c2nc3ccccc3s2)c1=O`, 1.58 µM. As for `CCn1cc(C(=O)O)c(=O)c2cc(F)c(N3CCN(C(=S)NC(=O)c4ccccc4C)CC3)cc21`, the figure is 16 µM; as for `Cc1cc(C(=O)CN2C(=O)NC(C)(CC(C)C)C2=O)c(C)n1-c1ccc2c(c1)OCO2` (stereo not given), 96.4 µM. Take `C/C(=N\NC(=O)c1ccncc1)c1c(O)n(-c2ccccc2)c(=O)[nH]c1=O`: the IC90 was 3.94 µM. With `NNC(=S)NC1CC2CC1C1C=CCC21` (stereo not given), the IC90 was 13.5 µM. As for `Cc1ccc(C(=O)N/C(=C\c2ccc(-c3ccc(Cl)cc3)o2)C(=O)NCCCN(C)C)cc1`, the figure is 23.7 µM; as for `O=C(COC(=O)c1ccc([N+](=O)[O-])s1)NCc1ccccc1`, 39.4 µM; as for `Cc1cccc(N2CCN(CC3CCCCC3)CC2)c1C`, 53.2 µM. `Cc1ccc(C)c(N2CCN(C3CCCC(C)C3)CC2)c1` (stereo not given): the IC90 was 48.2 µM.

`O=C(O)CSc1ncnc2c1sc1nc(-c3ccccc3)c3c(c12)CCC3`: the IC90 is 14.2 µM. As to `COC(=O)Cn1c2ccccc2c2nc(C)sc21`, the IC90 is 27.8 µM. As for `Cc1cc(Br)ccc1NC(=O)CN1C(=O)C2CC=CCC2C1=O` (stereo not given), the figure is 38.7 µM. As for `O=c1cc(C(F)(F)F)c2sc(N3CCCCC3)nc2[nH]1`, the figure is 49.3 µM; as for `COc1ccccc1C(c1c(N)n(C)c(=O)n(C)c1=O)C(C)[N+](=O)[O-]` (stereo not given), 18 µM; as for `Cc1ccc(C2=N/C(=C\c3cccc(F)c3)C(=O)O2)cc1`, 4.02 µM. To `CC(=O)Nc1ccc(S(=O)(=O)Nc2cccc3cccnc23)cc1` belongs 43.3 µM. For the compound `COc1cc(/C(C)=N\NC(N)=S)cc(OC)c1OC`, the IC90 was 19.6 µM. Regarding `CC1CCN(C(=S)NC(=O)c2ccccc2)CC1`, the IC90 was 13.6 µM. As for `CC(=O)Nc1ccc(Nc2ncc([N+](=O)[O-])c(Nc3ccc(NC(C)=O)cc3)n2)cc1`, the figure is 45.5 µM; as for `CCOC(=O)N1CCN(CC(=O)Nc2nnc(C(F)(F)F)s2)CC1`, 50.1 µM. On to `O=C(CSc1nnc(-c2ccncc2)o1)c1cccc([N+](=O)[O-])c1`, for which the IC90 is 45.4 µM. As for `O=C1S/C(=C\C=C\c2ccco2)C(=O)N1c1ccccc1`, the figure is 77.6 µM; as for `COc1cc(CNCCO)cc(Br)c1OCc1ccccc1Cl`, 52.7 µM. With `O=C1O/C(=C/c2ccccc2)N=C1c1ccccc1`, the IC90 is 28.3 µM. Consider `O=C(CCCCCN1C(=O)c2cccc([N+](=O)[O-])c2C1=O)Nc1ccccc1F`, for which the IC90 is 44.1 µM.

As for `COc1ccc(-c2cc(C(F)F)nc(-n3nc(C)cc3C)n2)cc1`, the IC90 is 54.1 µM. To `CCc1cc(C(N)=S)ccn1` belongs 12.8 µM; to `CCOc1ccc(N2C(=O)CC(N)C2=O)cc1` (stereo not given), 52.4 µM.

For `C=C(C)C1Cc2c(C)nn(-c3cccc4ccccc34)c2C1` (stereo not given), the IC90 was 47.4 µM. To `CCc1cc2c(-c3ccccc3)cc(=O)oc2cc1OC(C)C(C)=O` (stereo not given) belongs 48.5 µM.

On to `O=C(CSc1ncn[nH]1)Nc1cccc2ccccc12`, for which the IC90 is 65 µM. To `CCN(CC)C(=O)C1CCCN(c2ccc([N+](=O)[O-])cc2/C=N/NC(=O)c2cccc(O)c2)C1` (stereo not given) belongs 55.3 µM; to `O=C(CCNc1ccccc1)c1cccc([N+](=O)[O-])c1`, 45.8 µM; to `Cn1c(/C=N/c2nc3ccccc3[nH]2)nc2ccccc21`, 4.17 µM. As for `CCN(CC)CCCNC(=O)c1c(O)c2ccccc2n(Cc2ccccc2)c1=O`, the figure is 13.8 µM; as for `CCCOc1ccc(C(=O)N/N=C/c2ccc(-c3ccc(S(=O)(=O)Nc4ncccn4)cc3)o2)cc1`, 26.1 µM; as for `CCOc1ccc2nc(SC3CC(=O)N(c4cccc(OC)c4)C3=O)sc2c1` (stereo not given), 25.7 µM. As for `O=C(N/N=C/c1ccc(OC(=O)c2ccc3c(c2)OCO3)cc1)c1cncc(Br)c1`, the figure is 48.3 µM; as for `CCC(CC)c1nnc(NC(=O)c2ccc(N3CCCCC3)c([N+](=O)[O-])c2)s1`, 44 µM; as for `O=C(/C=C/c1cccnc1)c1ccc(O)cc1`, 50.4 µM. In the case of `COc1cc(NC(=O)c2cccc(Cl)c2)c(OC)cc1NC(=O)CN1CCCCC1`, the IC90 is 75.5 µM.

In the case of `CC1CCN(CC(CS(=O)(=O)c2ccc([N+](=O)[O-])cc2)N2CCC(C)CC2)CC1` (stereo not given), the IC90 was 31.5 µM. Turning to `O=C(Oc1c(-c2ccccc2)c(=O)n2c3c(cccc13)CC2)c1cccc([N+](=O)[O-])c1`, the IC90 is 62.3 µM.

On to `O=C(CCl)N(c1ccccc1)C1CCS(=O)(=O)C1` (stereo not given), for which the IC90 was 13.9 µM. Regarding `COc1ccc(C(=O)/C=C/c2ccc(O)cc2)c(O)c1CC=C(C)C`, the IC90 is 75.1 µM.

Turning to `O=S(=O)(Cc1ccccc1)c1cnc2ccccc2n1`, the IC90 is 48.6 µM. As to `O=C1Nc2c(ccc(Cl)c2Cl)C(=O)C1(F)c1ccccc1` (stereo not given), the IC90 was 71.7 µM. To `C=C(C)C(=O)O[C@H]1C/C(C)=C\C(=O)/C=C(\C)[C@H](O)[C@@H]2OC(=O)C(=C)[C@@H]21` belongs 31.3 µM. As for `CC1CCCN(S(=O)(=O)c2ccc(C(=O)Nc3nnc(-c4ccncc4)o3)cc2)C1` (stereo not given), the figure is 64.8 µM.

For the compound `CC[C@@](C)(NS(=O)(=O)OCC(Cl)(Cl)Cl)c1ccccc1`, the IC90 is 54.8 µM. As for `COc1ccc(C(=O)CN(C(=O)c2ccc(Cl)cc2)N2C(=O)c3ccccc3C2=O)cc1`, the figure is 22.4 µM; as for `COC(=O)c1sc(-c2ccc(Cl)cc2)cc1NC(=O)COCC(=O)O`, 44.8 µM. To `O=C(Cc1ccc(Cl)cc1Cl)Nc1ccc(OC(F)F)c(Cl)c1` belongs 13.7 µM; to `CCCCN(CC)S(=O)(=O)c1ccc(C(=O)Nc2nnc(CSC)o2)cc1`, 31.7 µM.

For `COc1cccc(/C=N/Nc2nc(N3CCCC3)nc(N3CCCC3)n2)c1O`, the IC90 was 36.1 µM. On to `CCCC(C)NC(=O)c1ccc(OCc2ccc(Cl)cc2)c(OC)c1` (stereo not given), for which the IC90 is 11.6 µM. To `COc1ccc(NC(=O)c2cc(C)nc3ccccc23)c(OC)c1` belongs 12.9 µM; to `COc1ccccc1NS(=O)(=O)c1cccc(N2CC(O)=C(c3ccccc3)C2=N)c1`, 16 µM; to `CC1(C)CC(CCNC(=O)CCl)(c2ccccc2)CCO1` (stereo not given), 8.14 µM. With `Cc1ccc(S(=O)(=O)Nc2cccc3cccnc23)c([N+](=O)[O-])c1`, the IC90 is 4.7 µM.

Turning to `CC12CCC(C/C1=N\N=C1\NC(=O)/C(=C\c3cccc(Br)c3)S1)C2(C)C` (stereo not given), the IC90 was 37.7 µM. As for `O=C1COc2ccc(C(=O)/C=C/c3ccccc3)cc2N1`, the figure is 12.2 µM; as for `Cc1cccc(Cl)c1NC(=S)NN`, 55.1 µM. To `Cc1cc(C)cc(NC(=O)c2cc(Cl)sc2Cl)c1` belongs 7.73 µM. With `COc1cccc(/C=N/NC(=O)NC23CC4CC(CC(C4)C2)C3)c1O`, the IC90 is 26.8 µM. To `CCCCC12CN3CC(C)(CN(C1)C3c1ccc([N+](=O)[O-])o1)C2=O` (stereo not given) belongs 23.5 µM. To `O=C(CC12CC3CC(CC(C3)C1)C2)NCc1ccc(F)cc1` belongs 10.4 µM. Take `Cc1ccccc1OCC(=O)Nc1ccccc1N1CCCCC1`: the IC90 is 13.5 µM. Turning to `CC(=O)Nc1ccc(SCC(=O)c2cc(C)n(C)c2C)cc1`, the IC90 was 53.6 µM.

As for `CCOC(=O)c1c(NC(=O)COC(=O)c2ncc(Cl)c(Cl)c2Cl)sc(C(=O)N(C)C)c1C`, the IC90 was 27.7 µM. For the compound `c1ccc2c(c1)Cn1nc(Cc3nc4c(s3)CCCC4)nc1-2`, the IC90 is 53 µM.

For `C/C(CC(=O)NCc1ccco1)=N\NC(=O)CC#N`, the IC90 was 17.6 µM. For `CCc1cc(C(=O)O)c(NC(=O)/C=C/c2ccc(OC)cc2)s1`, the IC90 was 59.7 µM. `Cc1onc(NC(=O)c2ccc([N+](=O)[O-])o2)c1Br`: the IC90 is 16.4 µM. To `Cc1cc(C2C(=O)c3ccccc3C2=O)c(C)c(C)c1C` belongs 16.4 µM.
